Results as given in patent US9089509B2, “Method of treatment of age-related macular degeneration” (YEDA RESEARCH AND DEVELOPMENT CO., LTD., priority 2006, dated 2015).

Columns and labels:
[1] = test system: Tg-AD mice (APPK595N, M596L+PS1ΔE9); assay: Cop-1 vaccination of Tg-AD mice: neurogenesis in hippocampal dentate gyrus (BrdU, NeuN, DCX); format: in vivo, mouse
Procedure: For BrdU staining, sections were washed with PBS and incubated in 2N HCl at 37° C. for 30 min. Sections were blocked for 1 h with blocking solution [PBS containing 20% normal horse serum and 0.1% Triton X-100, or PBS containing mouse immunoglobulin blocking reagent obtained from Vector Laboratories (Burlingame, Calif.)].
For immunohistochemistry, tissue sections were treated with a permeabilization/blocking solution containing 10% FCS, 2% bovine serum albumin, 1% glycine, and 0.05% Triton X-100 (Sigma-Aldrich, St. Louis). Tissue sections were stained overnight at 4° C. with specified combinations of the following primary antibodies: rat anti-BrdU (1:200; Oxford Biotechnology, Kidlington, Oxfordshire, UK), goat anti-doublecortin (anti-DCX) (1:400; Santa Cruz Biotechnology, Santa Cruz, Calif.), and mouse anti-neuronal nuclear protein (anti-NeuN) (1:200; Chemicon). […] Expression of IGF-I was detected by goat anti-IGF-I Abs (1:20; R&D Systems). Expression of TNF-α was detected by goat anti-TNF-α Abs (1:100; R&D Systems). T cells were detected with anti-CD3 polyclonal Abs (rabbit, 1:100; DakoCytomation, CA). […]
For in-vivo experiments, the numbers of Aβ plaques and CD11b^+ microglia in the hippocampus were counted at 300-μm intervals in 6-8 coronal sections (30 μm) from each mouse. Neurogenesis in the dentate gyrus was evaluated by counting of pre-mature neurons (DCX^+), proliferating cells (BrdU^+), and newly formed mature neurons (BrdU^+/NeuN^+) in six coronal sections (370 μm apart) per mouse brain. To obtain an estimate of the total number of labeled cells per dentate gyrus, the total number of cells counted in the selected coronal sections from each brain was multiplied by the volume index (the ratio between the volume of the dentate gyrus and the total combined volume of the selected sections). […] Quantification of CD3^+, CD11b^+ and CD11c^+ cells were analyzed from 30-50 Aβ-plaques of each mouse tested in this study. […]

[2] = test system: Tg-AD mice (APPK595N, M596L+PS1ΔE9); assay: Morris water maze (MWM) spatial learning/memory in Cop-1-vaccinated Tg-AD mice; format: in vivo, mouse; details: acquisition and reversal tasks (FIGS. 7A-7B)
Procedure: (§1) Each mouse was subcutaneously injected five times with a total of 100 μg of high-molecular-weight (TV-5010 DS, from batch no. 486220205; Teva Pharmaceutical Industries, Petach Tikva, Israel) emulsified in 200 μl PBS, from experimental day 0 until day 24, twice during the first week and once a week thereafter.
Spatial learning/memory was assessed by performance on a hippocampus-dependent visuo-spatial learning task in the Morris water maze (MWM) and carried out as described (Lichtenwalner et al., 2001).
MWM behavior scores were analyzed using […]. Treatment group and trial block were used as sources of variation to evaluate the significance of differences between mean scores during acquisition trial blocks in the MWM.
Two weeks before the end of the experiment, all mice were tested in a Morris water maze (MWM) for cognitive activity, as reflected by their performance of a hippocampus-dependent spatial learning/memory task. […] Differences in cognitive performance were manifested in both the acquisition (FIG. 7A) and the reversal tasks (FIG. 7B).

[3] = test system: Tg-AD mice (APPK595N, M596L+PS1ΔE9); assay: Cop-1 vaccination of Tg-AD mice: Aβ plaques, microglial phenotype and T cells in hippocampus (immunohistochemistry); format: in vivo, mouse
Procedure: For immunohistochemistry, tissue sections were treated with a permeabilization/blocking solution containing 10% FCS, 2% bovine serum albumin, 1% glycine, and 0.05% Triton X-100 (Sigma-Aldrich, St. Louis). Tissue sections were stained overnight at 4° C. with specified combinations of the following primary antibodies: rat anti-BrdU (1:200; Oxford Biotechnology, Kidlington, Oxfordshire, UK), goat anti-doublecortin (anti-DCX) (1:400; Santa Cruz Biotechnology, Santa Cruz, Calif.), and mouse anti-neuronal nuclear protein (anti-NeuN) (1:200; Chemicon). Secondary antibodies were FITC-conjugated donkey anti-goat, Cy-3-conjugated donkey anti-mouse, and Cy-3- or Cy-5-conjugated donkey anti-rat (1:200; Jackson ImmunoResearch, West Grove, Pa.). CD11b (MAC1; 1:50; BD—Pharmingen) or FITC-conjugated 113-4 was used for labeling of microglia. Anti-MHC-II Abs (rat, clone IBL-5/22; 1:50) was used to detect expression of cell-surface MHC-II proteins. To detect expression of CD11c hamster anti-CD11c (1:100; eBioscience, San Diego, Calif.) was used. Anti-Aβ (human amino-acid residues 1-17) (mouse, clone 6E10; Chemicon) was used to detect expression of human Aβ. Expression of IGF-I was detected by goat anti-IGF-I Abs (1:20; R&D Systems). Expression of TNF-α was detected by goat anti-TNF-α Abs (1:100; R&D Systems). T cells were detected with anti-CD3 polyclonal Abs (rabbit, 1:100; DakoCytomation, CA). Propidium iodide (1 μg/ml; Molecular Probes, Invitrogen, Carlsbad, Calif.), was used for nuclear staining.
Nineteen adult double-transgenic APPK595N, M596L+PS1ΔE9 mice of the B6C3-Tg (APPswe, PSEN1dE9) 85 Dbo/J strain (Borchelt et al., 1997) were purchased from The Jackson Laboratory (Bar Harbor, Me.) and were bred and maintained in the Animal Breeding Center of The Weizmann Institute of Science. All animals were handled according to the regulations formulated by the Weizmann Institute's Animal Care and Use Committee, and all experiments and procedures were approved by the Weizmann Institute's Animal Care and Use Committee.
as §1
For in-vivo experiments, the numbers of Aβ plaques and CD11b^+ microglia in the hippocampus were counted at 300-μm intervals in 6-8 coronal sections (30 μm) from each mouse. Neurogenesis in the dentate gyrus was evaluated by counting of pre-mature neurons (DCX^+), proliferating cells (BrdU^+), and newly formed mature neurons (BrdU^+/NeuN^+) in six coronal sections (370 μm apart) per mouse brain. To obtain an estimate of the total number of labeled cells per dentate gyrus, the total number of cells counted in the selected coronal sections from each brain was multiplied by the volume index (the ratio between the volume of the dentate gyrus and the total combined volume of the selected sections). Specificity of BrdU+/NeuN+ co-expression was assayed using the confocal microscope (LSM 510) in optical sections at 1-μm intervals. Quantification of CD3^+, CD11b^+ and CD11c^+ cells were analyzed from 30-50 Aβ-plaques of each mouse tested in this study. Cell counts, numbers of Aβ plaques, plaque areas, and intensity of NeuN staining per unit area in the dentate gyrus were evaluated automatically using Image-Pro Plus 4.5 software (Media Cybernetics, Carlsbad, Calif.).
We verified the presence of both transgenes in each mouse by PCR amplification of genomic DNA. Tg-AD mice aged approximately 8 months were then vaccinated subcutaneously with Cop-1 (n=6) twice during the first week and once a week thereafter. Age-matched untreated Tg-AD mice (n=7) and non-Tg littermates (n=6) served, respectively, as untreated-Tg and wild-type controls. Seven weeks after the first Cop-1 injection all the mice were euthanized and analyzed. […]

[4] = test system: retinal ganglion cells (RGCs); details: cited from earlier work
[5] = vaccinated Tg-AD mice (FIG. 2D)

Substance: glatiramer acetate [Cop-1]
- newly formed mature neurons (BrdU+/NeuN+) in dentate gyrus ([1]; compared to non-Tg littermates (FIG. 6B)): similar
- pre-mature neurons (DCX+ cells) in dentate gyri ([1]; relative to non-Tg littermates (FIG. 6C)): slightly but significantly more
- proliferating cells (BrdU+) in dentate gyrus ([1]; vs untreated-Tg counterparts (FIG. 6A)): significantly more
- MWM performance vs non-Tg littermates [2]: did not differ significantly
- MWM performance vs untreated-Tg-AD mice [2]: superior to that of the untreated-Tg-AD mice
- Aβ plaques in brain cryosections stained for human Aβ ([3]; s.c. vaccination, seven weeks after first injection, vs untreated Tg-AD mice (FIG. 2A)): very few
- MHC-II expression by microglia adjacent to residual Aβ plaques [3, 5]: most of the microglia adjacent to residual Aβ plaques expressed MHC-II
- TNF-α expression by microglia adjacent to residual Aβ plaques [3, 5]: hardly any of them expressed TNF-α
- IGF-I expression by MHC-II+ microglia ([3]; vaccinated Tg-AD mice (FIG. 2F)): found to express IGF-I
- CD11b+ cells that became CD11b+/CD11c+ cells (associated with Aβ-plaque) ([3]; vaccinated Tg-AD mice, 25% in untreated Tg-AD mice (FIG. 3C)): 87%
- NeuN+ staining in hippocampal CA1 and dentate gyrus ([3]; vaccinated Tg-AD mouse relative to non-Tg littermate (FIG. 2A)): almost normal
- area occupied by the plaques (Aβ-immunoreactivity) ([3]; vs age-matched untreated Tg-AD mice (FIG. 2J)): significantly smaller
- total number of Aβ-plaques (30-μm hippocampal slice) ([3]; vs untreated Tg-AD mice (FIG. 2I)): significantly fewer plaques
- CD11b+ microglia in hippocampus ([3]; vs untreated Tg-AD mice (FIG. 2K)): significantly fewer
- T cells (CD3+) associated with Aβ-plaque ([3]; vs untreated Tg-AD mice (FIG. 2L)): significantly more
- number of CD11b+ cells associated with Aβ-plaque ([3]; vs untreated Tg-AD mice (FIG. 3B)): significantly decreased
- outcome of weekly administration of adjuvant-free agent ([4]; model of chronically elevated intraocular pressure (Bakalash et al., 2005)): neuroprotection
- RGC loss ([4]; rat model of chronically high intraocular pressure, vaccination): significantly reduces RGC loss
